The values below come from patent US9890147B2 (BAYER PHARMA AKTIENGESELLSCHAFT, priority 2012, dated 2018).

For one test, the target named is T1, BRD4 (BD1) (Homo sapiens, UniProt O60885).
T1 construct: with relatively long constructs also being possible, preferably amino acids 44-168; made in house; host or cells: E. coli
The test is described as follows: Binding assay BRD4/acetylated peptide H4 (TR-FRET protein-protein interaction assay). The procedure, abridged:
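His6-BRD4 BD1 (aa 67-152, E. coli), usually 10 nM, with biotinylated tetra-acetylated H4 peptide in HEPES pH 7.5 buffer; 11 compound concentrations 0.1 nM–20 μM in duplicate, 10 min preincubation, 1 h at 22 °C then ≥3 h at 4 °C. TR-FRET 665/620 ratio; IC50 by 4-parameter fit.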
A general note: TR-FRET usually uses a lanthanide donor and a delayed reading to cut background.

A further test relates to MOLM-13 cells. The test is described as follows: Cell proliferation assay (alamarBlue), MOLM-13. Type of test: cell-based. As to conditions: Homo sapiens, 96 hours incubation, inhibition of cell proliferation. Put shortly: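 Cells in RPMI1640/10% FCS read by alamarBlue fluorescence (ex 530, em 590 nm) after overnight 37 °C incubation, then treated at 1E-5 to 1E-8 M for 96 h. Pre-treatment values subtracted from endpoint values and compared with buffer-only wells; IC50 is 50% proliferation inhibition.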

Broadly, the IC50 is the point on the concentration scale where inhibition reaches its midpoint. Low readings indicate inhibition by little substance, high ones a need for much substance.

Regarding `CNC(=O)N1N=C(c2ccc(-c3ccc(S(C)(=O)=O)cc3)cc2)c2cc(OC)c(OC)cc2CC1C` (racemic) [Example 108, (±)-7,8-dimethoxy-N,4-dimethyl-1-[4′-(methylsulphonyl)biphenyl-4-yl]-4,5-dihydro-3H-2,3-benzodiazepine-3-carboxamide], the IC50 at BRD4 (BD1) was 60 nM; in the test on MOLM-13 cells it was 1560 nM.

`CNC(=O)N1N=C(c2ccc(-c3ccccc3C#N)cc2)c2cc(OC)c(OC)cc2CC1C` (racemic) [Example 109, (±)-1-(2′-cyanobiphenyl-4-yl)-7,8-dimethoxy-N,4-dimethyl-4,5-dihydro-3H-2,3-benzodiazepine-3-carboxamide]: the IC50 on BRD4 (BD1) was 50 nM; in the test with MOLM-13 cells, 1160 nM.

Regarding `CNC(=O)N1N=C(c2ccc(-c3ccc(N4CCOCC4)cc3)cc2)c2cc(OC)c(OC)cc2CC1C` (racemic) [Example 110, (±)-7,8-dimethoxy-N,4-dimethyl-1-[4′-(morpholin-4-yl)biphenyl-4-yl]-4,5-dihydro-3H-2,3-benzodiazepine-3-carboxamide], the IC50 came out at 60 nM on BRD4 (BD1) and 360 nM in the test with MOLM-13 cells.

For `CNC(=O)N1N=C(c2ccc(-c3cncnc3)cc2)c2cc(OC)c(OC)cc2CC1C` (racemic) [Example 111, (±)-7,8-dimethoxy-N,4-dimethyl-1-[4-(pyrimidin-5-yl)phenyl]-4,5-dihydro-3H-2,3-benzodiazepine-3-carboxamide], the results for the IC50 at BRD4 (BD1) and in the test with MOLM-13 cells were 80 nM and 810 nM, respectively.

As to `CNC(=O)N1N=C(c2ccc(-c3ccccc3CO)cc2)c2cc(OC)c(OC)cc2CC1C` (racemic) [Example 112, (±)-1-[2′-(hydroxymethyl)biphenyl-4-yl]-7,8-dimethoxy-N,4-dimethyl-4,5-dihydro-3H-2,3-benzodiazepine-3-carboxamide], the results for the IC50 on BRD4 (BD1) and with MOLM-13 cells were 80 nM and 630 nM, respectively.

For `CNC(=O)N1N=C(c2ccc(-c3cccc(C(=O)NCCN(C)C)c3)cc2)c2cc(OC)c(OC)cc2CC1C` (racemic) [Example 113, (±)-1-(3′-{[2-(dimethylamino)ethyl]carbamoyl}biphenyl-4-yl)-7,8-dimethoxy-N,4-dimethyl-4,5-dihydro-3H-2,3-benzodiazepine-3-carboxamide], the values for the IC50 on BRD4 (BD1) and in the test on MOLM-13 cells were 40 nM and 1420 nM, respectively.

Regarding `CNC(=O)N1N=C(c2ccc(-c3cccc(S(N)(=O)=O)c3)cc2)c2cc(OC)c(OC)cc2CC1C` (racemic) [Example 114, (±)-7,8-dimethoxy-N,4-dimethyl-1-(3′-sulphamoylbiphenyl-4-yl)-4,5-dihydro-3H-2,3-benzodiazepine-3-carboxamide], the IC50 amounted to 40 nM on BRD4 (BD1) and 300 nM in the test with MOLM-13 cells.

Turning to `CNC(=O)N1N=C(c2ccc(-c3ccc(S(=O)(=O)NC)cc3)cc2)c2cc(OC)c(OC)cc2CC1C` (racemic) [Example 115, (±)-7,8-dimethoxy-N,4-dimethyl-1-[4′-(methylsulphamoyl)biphenyl-4-yl]-4,5-dihydro-3H-2,3-benzodiazepine-3-carboxamide], the 50% inhibitory concentration (IC50) turned out to be 50 nM on BRD4 (BD1) and 460 nM in the test on MOLM-13 cells.

As for `CNC(=O)N1N=C(c2ccc(-c3cccn3C)cc2)c2cc(OC)c(OC)cc2CC1C` (racemic) [Example 116, (±)-7,8-dimethoxy-N,4-dimethyl-1-[4-(1-methyl-1H-pyrrol-2-yl)phenyl]-4,5-dihydro-3H-2,3-benzodiazepine-3-carboxamide], the 50% inhibitory concentration (IC50) at BRD4 (BD1) came out at 70 nM; in the test on MOLM-13 cells, 490 nM.

In the case of `CNC(=O)N1N=C(c2ccc(-c3ccc(C)nc3)cc2)c2cc(OC)c(OC)cc2CC1C` (racemic) [Example 117, (±)-7,8-dimethoxy-N,4-dimethyl-1-[4-(6-methylpyridin-3-yl)phenyl]-4,5-dihydro-3H-2,3-benzodiazepine-3-carboxamide], the values for the half-inhibitory concentration (IC50) at BRD4 (BD1) and in the test with MOLM-13 cells were 50 nM and 380 nM, respectively.

As to `CNC(=O)N1N=C(c2ccc(-c3ccc(S(=O)(=O)NC4CC4)cc3)cc2)c2cc(OC)c(OC)cc2CC1C` (racemic) [Example 118, (±)-1-[4′-(cyclopropylsulphamoyl)-biphenyl-4-yl]-7,8-dimethoxy-N,4-dimethyl-4,5-dihydro-3H-2,3-benzodiazepine-3-carboxamide], the IC50 is 70 nM at BRD4 (BD1) and 500 nM in the test on MOLM-13 cells.

On to `CNC(=O)N1N=C(c2ccc(-c3cc(O)cc(F)c3)cc2)c2cc(OC)c(OC)cc2CC1C` (racemic) [Example 119, (±)-1-(3′-fluoro-5′-hydroxybiphenyl-4-yl)-7,8-dimethoxy-N,4-dimethyl-4,5-diliydro-3H-2,3-benzodiazepine-3-carboxamide], for which the figures for the IC50 on BRD4 (BD1) and with MOLM-13 cells were 90 nM and 410 nM, respectively.

On to `CNC(=O)N1N=C(c2ccc(-c3cc(C)cc(F)c3)cc2)c2cc(OC)c(OC)cc2CC1C` (racemic) [Example 120, (±)-1-(3′-fluoro-5′-methylbiphenyl-4-yl)-7,8-dimethoxy-N,4-dimethyl-4,5-dihydro-3H-2,3-benzodiazepine-3-carboxamide], for which the values for the IC50 on BRD4 (BD1) and with MOLM-13 cells were 190 nM and 800 nM, respectively.

Consider `CNC(=O)N1N=C(c2ccc(-c3cccc(S(=O)(=O)NC)c3)cc2)c2cc(OC)c(OC)cc2CC1C` (racemic) [Example 121, (±)-7,8-dimethoxy-N,4-dimethyl-1-[3′-(methylsulphamoyl)biphenyl-4-yl]-4,5-dihydro-3H-2,3-benzodiazepine-3-carboxamide], for which the IC50 at BRD4 (BD1) turned out to be 40 nM; in the test on MOLM-13 cells, 270 nM.

Turning to `CNC(=O)N1N=C(c2ccc(-c3cncc(F)c3)cc2)c2cc(OC)c(OC)cc2CC1C` (racemic) [Example 122, (±)-1-[4-(5-fluoropyridin-3-yl)phenyl]-7,8-dimethoxy-N,4-dimethyl-4,5-dihydro-3H-2,3-benzodiazepine-3-carboxamide], the IC50 turned out to be 60 nM on BRD4 (BD1) and 660 nM in the test on MOLM-13 cells.

As to `CNC(=O)N1N=C(c2ccc(-c3cnccc3F)cc2)c2cc(OC)c(OC)cc2CC1C` (racemic) [Example 123, (±)-1-[4-(4-fluoropyridin-3-yl)phenyl]-7,8-dimethoxy-N,4-dimethyl-4,5-dihydro-3H-2,3-benzodiazepine-3-carboxamide], the IC50 on BRD4 (BD1) came to 50 nM; in the test on MOLM-13 cells it was 630 nM.

Turning to `CNC(=O)N1N=C(c2ccc(-c3cccnc3C)cc2)c2cc(OC)c(OC)cc2CC1C` (racemic) [Example 124, (±)-7,8-dimethoxy-N,4-dimethyl-1-[4-(2-methylpyridin-3-yl)phenyl]-4,5-dihydro-3H-2,3-benzodiazepine-3-carboxamide], the IC50 came out at 90 nM on BRD4 (BD1) and 1070 nM in the test on MOLM-13 cells.

For the compound `CNC(=O)N1N=C(c2ccc(-c3ccnc(OC)c3)cc2)c2cc(OC)c(OC)cc2CC1C` (racemic) [Example 125, (±)-7,8-dimethoxy-1-[4-(2-methoxypyridin-4-yl)phenyl]-N,4-dimethyl-4,5-dihydro-3H-2,3-benzodiazepine-3-carboxamide], the values for the IC50 on BRD4 (BD1) and with MOLM-13 cells were 70 nM and 1160 nM, respectively.

In the case of `CNC(=O)N1N=C(c2ccc(-c3cncc(C#N)c3)cc2)c2cc(OC)c(OC)cc2CC1C` (racemic) [Example 126, (±)-1-[4-(5-cyanopyridin-3-yl)phenyl]-7,8-dimethoxy-N,4-dimethyl-4,5-dihydro-3H-2,3-benzodiazepine-3-carboxamide], the IC50 is 90 nM at BRD4 (BD1) and 740 nM with MOLM-13 cells.

`CNC(=O)N1N=C(c2ccc(N3CCC(O)CC3)cc2)c2cc(OC)c(OC)cc2CC1C` (racemic) [Example 130, (±)-1-[4-(4-hydroxypiperidin-1-yl)phenyl]-7,8-dimethoxy-N,4-dimethyl-4,5-dihydro-3H-2,3-benzodiazepine-3-carboxamide]: the IC50 on BRD4 (BD1) was 30 nM; with MOLM-13 cells, 170 nM.

Turning to `CNC(=O)N1N=C(c2ccc(N3CCN(C(=O)C(C)(C)O)CC3)cc2)c2cc(OC)c(OC)cc2CC1C` (racemic) [Example 134, (±)-1-{4-[4-(2-hydroxy-2-methylpropanoyl)-piperazin-1-yl]phenyl}-7,8-dimethoxy-N,4-dimethyl-4,5-dihydro-3H-2,3-benzodiazepine-3-carboxamide], the IC50 at BRD4 (BD1) came to 50 nM; in the test on MOLM-13 cells it was 360 nM.

In the case of `CNC(=O)N1N=C(c2ccc(N3CCNC(=O)C3)cc2)c2cc(OC)c(OC)cc2CC1C` (racemic) [Example 137, (±)-7,8-dimethoxy-N,4-dimethyl-1-[4-(3-oxopiperazin-1-yl)phenyl]-4,5-dihydro-3H-2,3-benzodiazepine-3-carboxamide], the IC50 at BRD4 (BD1) is 60 nM; in the test with MOLM-13 cells it was 490 nM.

`CNC(=O)N1N=C(c2ccc(N3CCN(C)C(=O)C3)cc2)c2cc(OC)c(OC)cc2CC1C` (racemic) [Example 138, (±)-7,8-dimethoxy-N,4-dimethyl-1-[4-(4-methyl-3-oxopiperazin-1-yl)phenyl]-4,5-dihydro-3H-2,3-benzodiazepine-3-carboxamide]: the IC50 came out at 30 nM on BRD4 (BD1) and 280 nM in the test with MOLM-13 cells.

For `CNC(=O)N1N=C(c2cccc(N3CCOCC3)c2)c2cc(OC)c(OC)cc2CC1C` (racemic) [Example 140, (±)-7,8-dimethoxy-N,4-dimethyl-1-[3-(morpholin-4-yl)phenyl]-4,5-dihydro-3H-2,3-benzodiazepine-3-carboxamide], the IC50 came to 60 nM at BRD4 (BD1) and 470 nM in the test on MOLM-13 cells.

`CNC(=O)N1N=C(c2cccc(N3CC(F)(F)C3)c2)c2cc(OC)c(OC)cc2CC1C` (racemic) [Example 141, (±)-1-[3-(3,3-difluoroazetidin-1-yl)phenyl]-7,8-dimethoxy-N,4-dimethyl-4,5-dihydro-3H-2,3-benzodiazepine-3-carboxamide]: the results for the IC50 at BRD4 (BD1) and with MOLM-13 cells were 70 nM and 550 nM, respectively.
